The record followed here is patent US5648369A, “Aminoalkylpyridine compounds which are useful as anitconvulsant drugs, excitatory amino acid inhibitors and NMDA sigma receptor antagonists” (priority 1991, dated 1997).

A word on the Ki: it is a dissociation constant, usually derived from enzyme kinetics or from competition with a known ligand. A low value points to higher affinity. A word on the ED50: it is the dose that gives a 50% effect, or the effect in half of the subjects. By inhibition is commonly meant the change of the read-out against control, counted positive when it falls.

One data set has as its target NMDA. Put plainly: Radioligand binding, NMDA, [3H]CGS19755. The source says:
(§1) EAAs are known to play important roles in excitatory neurotransmission in partial seizures as discussed earlier. […] Thus, several aminoalkylpyridines of this invention are effective antagonists of NMDA-receptor mediated EAA neurotransmission and function as noncompetitive NMDA antagonists and thus can be used to advantage in epilepsy, stroke and Alzheimer's disease.
(§2) EAAs are known to play important roles in excitatory transmission in partial seizures as discussed earlier. In general, antieptileptic drugs effective against MES seizures alter ionic transport across excitable membranes [Porter, R. J., and Pitlick, W. H., In "Basic and Clinical Pharmacology", 4th Edn., B. G. Katzung, Ed., Appleton and Lange, CA 1989, pp. 287-303]. Based on this rationale, the aminoalkylpyridines may be expected to attenuate EAA neurotransmission. Indeed, evaluation of potential displacement activity of #2 at all inhibitory and excitatory amino acid receptor types and subtypes using appropriate radioligands, indicate that this aminoalkylpyridine inhibits at 10 μM concentration, 49% of the binding of [^3 H]DTG, a ligand highly specific for the σ (sigma) receptor population of the PCP receptors on the NMDA receptor-ionophore complex (Table 6).
(§3) Values are expressed as the percent inhibition of specific binding and […]

Another data set addresses Benzodiazepine. Kind of data set: Radioligand binding, Benzodiazepine.
Excerpt: as §1, §2, §3

For a further data set, the system named is Adenosine. Put plainly: Radioligand binding, Adenosine.
Excerpt: as §1, §2, §3

The test system of another data set is MK-801. Put plainly: Radioligand binding, MK-801, [3H]MK-801.
Excerpt: as §1, §2, §3

A further data set relates to Sigma. Put plainly: Radioligand binding, Sigma, [3H]DTG. The settings on record: for inhibition of the binding of [3H]DTG (in words): σ receptor population. The source says: (§4) EAAs are known to play important roles in excitatory neurotransmission in partial seizures as discussed earlier.
(§5) EAAs are known to play important roles in excitatory transmission in partial seizures as discussed earlier.

The next data set in a line: in vivo. Details: species or system rat (Sprague-Dawley). The note with it: rat, po. The source says: Inability to do so rapidly indicates a neurologic deficit.
For data set [1], the system named is subcutaneous pentylenetetrazol seizures. Kind of data set: Subcutaneous pentylenetetrazol (Metrazole) seizure threshold test (scMet), mice, i.p. Format: in vivo. The note with it: Mus musculus, ip. How it is done: (§6) The Subcutaneous Pentylenetetrazol (Metrazole) Seizure Threshold Test (scMet): A 0.5% solution of 85 mg/kg of pentylenetetrazol is administered subcutaneously in the posterior midline. The animal is observed for 30 minutes.

The subject of the next data set is PCF. Put plainly: Radioligand binding, PCP, [3H]TCP.
Excerpt: as §1, §2, §3

Another data set concerns GABAA. Kind of data set: Radioligand binding, GABAA.
Excerpt: as §4, §5

The next data set has as its system Quisqualate. Put plainly: Radioligand binding, Quisqualate, [3H]AMPA.
Excerpt: as §1, §2, §3

The target of data set [2] is Glycine (Homo sapiens, UniProt P23415). Kind of data set: Radioligand binding, Glycine (inhibitory).
Chain of Glycine (Homo sapiens, UniProt P23415) (P23415 29-457): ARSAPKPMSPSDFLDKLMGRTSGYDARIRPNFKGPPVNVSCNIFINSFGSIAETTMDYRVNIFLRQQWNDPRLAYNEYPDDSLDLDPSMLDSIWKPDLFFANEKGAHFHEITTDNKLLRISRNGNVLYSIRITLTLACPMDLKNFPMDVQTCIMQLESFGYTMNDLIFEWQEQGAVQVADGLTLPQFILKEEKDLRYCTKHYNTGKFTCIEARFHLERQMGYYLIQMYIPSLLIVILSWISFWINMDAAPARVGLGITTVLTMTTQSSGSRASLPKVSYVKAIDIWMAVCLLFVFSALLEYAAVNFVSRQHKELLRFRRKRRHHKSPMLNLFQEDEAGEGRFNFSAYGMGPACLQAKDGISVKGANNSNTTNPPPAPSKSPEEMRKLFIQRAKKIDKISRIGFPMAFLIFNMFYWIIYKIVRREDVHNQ
Chain of Glycine (Homo sapiens, UniProt P23415) (P48167 23-497 partner): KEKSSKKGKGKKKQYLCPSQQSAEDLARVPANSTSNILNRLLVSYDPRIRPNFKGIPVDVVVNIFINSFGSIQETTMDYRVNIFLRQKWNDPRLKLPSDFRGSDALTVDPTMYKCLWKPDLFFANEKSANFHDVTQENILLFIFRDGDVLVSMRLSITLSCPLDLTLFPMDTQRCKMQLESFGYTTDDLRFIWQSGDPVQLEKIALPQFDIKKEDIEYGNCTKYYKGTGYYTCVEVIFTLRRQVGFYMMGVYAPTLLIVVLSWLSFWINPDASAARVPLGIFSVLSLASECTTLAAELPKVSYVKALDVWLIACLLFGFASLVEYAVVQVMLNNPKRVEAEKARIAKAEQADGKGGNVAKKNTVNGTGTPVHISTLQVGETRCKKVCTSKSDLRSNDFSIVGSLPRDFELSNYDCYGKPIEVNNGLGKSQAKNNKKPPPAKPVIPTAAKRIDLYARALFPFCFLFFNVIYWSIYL
Excerpt: as §4, §5

The nature of data set [3]: Rotorod ataxia test (neurotoxicity), mice, i.p. The settings on record: mouse, in vivo, ip. How it is done: Neurotoxicity is evaluated in mice by the rotorod ataxia test. The animal is placed on a wooden rod of 11/8" diameter rotating at 6 rpm. Normal mice can remain on a rod rotating at this speed indefinitely.
Background: Falling from the rotarod earlier than controls is read as motor impairment.

In data set [4] the test system is maximal electroshock seizures. Put plainly: Maximal electroshock seizure (MES) test in the rat, p.o. The settings on record: for ED50 / responders at 50 mg/kg: Rattus norvegicus, po; for ED50: read-out: ED50 MES; for responders at 50 mg/kg: read-out: Percent protection at 50 mg/kg dose, p.o., in the MES Test in the rat; for P.I. MES (TD50/ED50): rat, p.o.
Excerpt: (§7) The Maximal Electroshock Seizure Test (MES): Maximal electroshock seizures are elicited with a 60 Hz alternating current of 50 mA intensity in mice and about 150 mA in rats (5-7 times that necessary to elicit minimal electroshock seizures), delivered for 0.2 sec via corneal electrodes. A drop of 0.9% saline is instilled in the eye prior to application of the electrodes in order to prevent the death of the animal. Abolition of the hind limb tonic extension component of the seizure is defined as protection and results are expressed as number of animals protected/number of animals tested.
This species will be subject of the complete anticonvulsant quantification test evaluation as described above, but after oral (gavage) administration of the candidate compound.
Neurological deficit in rats is examined by the positional sense test and gait and stance test. […] Inability to do so rapidly indicates a neurologic deficit. In the gait and stance test, a neurologic deficit is indicated by a circular or zigzag gait, ataxia, abnormal spread of the legs, abnormal body posture, tremor, hyperactivity, lack of exploratory behavior, somnolence, stupor, or catalepsy.
The next data set concerns Kainate. Put plainly: Radioligand binding, Kainate, [3H]KA.
Excerpt: as §1, §2, §3

The target of a further data set is GABAe (Homo sapiens, UniProt Q9UBS5). Put plainly: Radioligand binding, GABAe.
Chain of GABAe (Q9UBS5 15-961 limits assumed): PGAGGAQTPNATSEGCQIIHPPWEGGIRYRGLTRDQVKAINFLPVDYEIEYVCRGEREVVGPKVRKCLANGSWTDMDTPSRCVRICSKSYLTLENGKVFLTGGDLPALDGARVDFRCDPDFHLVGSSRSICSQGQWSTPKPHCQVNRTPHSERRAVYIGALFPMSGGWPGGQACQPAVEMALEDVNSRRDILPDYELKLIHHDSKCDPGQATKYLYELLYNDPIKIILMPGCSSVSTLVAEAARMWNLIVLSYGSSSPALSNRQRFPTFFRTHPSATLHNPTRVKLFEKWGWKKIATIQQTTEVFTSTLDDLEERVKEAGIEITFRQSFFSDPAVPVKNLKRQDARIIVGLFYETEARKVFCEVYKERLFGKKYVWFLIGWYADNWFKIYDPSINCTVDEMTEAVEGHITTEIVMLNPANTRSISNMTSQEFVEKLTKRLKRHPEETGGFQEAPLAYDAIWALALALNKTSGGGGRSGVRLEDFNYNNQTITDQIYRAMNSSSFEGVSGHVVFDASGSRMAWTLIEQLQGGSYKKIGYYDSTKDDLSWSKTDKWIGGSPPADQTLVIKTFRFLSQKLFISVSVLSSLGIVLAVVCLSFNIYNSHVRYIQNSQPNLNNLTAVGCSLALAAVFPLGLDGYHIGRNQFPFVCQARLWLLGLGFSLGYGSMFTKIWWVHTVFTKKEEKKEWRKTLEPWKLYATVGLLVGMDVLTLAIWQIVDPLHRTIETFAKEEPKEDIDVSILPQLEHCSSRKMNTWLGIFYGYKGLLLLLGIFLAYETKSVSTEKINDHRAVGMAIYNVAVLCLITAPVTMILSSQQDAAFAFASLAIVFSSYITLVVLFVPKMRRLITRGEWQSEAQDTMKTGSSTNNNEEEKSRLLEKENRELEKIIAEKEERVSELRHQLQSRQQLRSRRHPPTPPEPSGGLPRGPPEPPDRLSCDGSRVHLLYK
Chain of GABAe (O75899 42-941 partner): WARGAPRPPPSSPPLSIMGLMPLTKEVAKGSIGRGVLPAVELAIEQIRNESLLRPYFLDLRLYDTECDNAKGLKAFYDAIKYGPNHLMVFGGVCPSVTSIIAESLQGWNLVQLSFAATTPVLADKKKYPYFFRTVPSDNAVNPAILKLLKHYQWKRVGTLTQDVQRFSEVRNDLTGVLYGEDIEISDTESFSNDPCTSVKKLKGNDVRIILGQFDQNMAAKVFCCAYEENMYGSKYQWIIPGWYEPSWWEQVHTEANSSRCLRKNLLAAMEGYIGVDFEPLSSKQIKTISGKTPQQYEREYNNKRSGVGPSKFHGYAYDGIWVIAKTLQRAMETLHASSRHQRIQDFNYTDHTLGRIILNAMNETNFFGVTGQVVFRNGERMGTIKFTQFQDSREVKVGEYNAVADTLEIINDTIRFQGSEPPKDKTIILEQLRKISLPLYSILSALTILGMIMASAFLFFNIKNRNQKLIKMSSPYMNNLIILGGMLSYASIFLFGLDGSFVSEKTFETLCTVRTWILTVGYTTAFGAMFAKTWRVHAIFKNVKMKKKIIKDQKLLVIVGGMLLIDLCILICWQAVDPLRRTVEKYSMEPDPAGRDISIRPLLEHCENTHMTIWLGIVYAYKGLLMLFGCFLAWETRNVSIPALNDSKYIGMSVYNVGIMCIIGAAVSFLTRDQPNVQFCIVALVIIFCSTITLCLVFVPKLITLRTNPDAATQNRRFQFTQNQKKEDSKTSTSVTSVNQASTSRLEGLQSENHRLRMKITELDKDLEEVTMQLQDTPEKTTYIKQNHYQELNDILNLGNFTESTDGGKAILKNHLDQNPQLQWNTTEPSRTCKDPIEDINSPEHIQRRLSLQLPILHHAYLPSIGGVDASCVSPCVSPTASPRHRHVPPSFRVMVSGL
Excerpt: as §4, §5

Data set [5] relates to subcutaneous pentylenetetrazol seizures. Kind of data set: Subcutaneous pentylenetetrazol seizure threshold test (scMet), rat, p.o. The format is in vivo, rat (Sprague-Dawley). The settings on record: po. The method, then: as §6
The subject of the next data set is MES and scMet seizures. Put plainly: Anticonvulsant screening, ASP classification (MES and scMet tests) in mice, i.p. The format is in vivo, mouse. The note with it: ip; i.p. mouse; read-out: ASP Group Classification.
For data set [6], the system named is maximal electroshock seizures. Kind of data set: Maximal electroshock seizure (MES) test, anticonvulsant quantification in mice, i.p. The note with it: for ED50: Mus musculus, ip, read-out: ED50 MES; for P.I. MES (TD50/ED50): mice.
Experimental: Screening Methodology to Determine Anticonvulsant Activity: In mice, i.p.: All compounds are solubilized in 0.5% methylcellulose. […] The compounds are administered intraperitoneally in a volume of 0.01 ml/gm to male Carworth Farms #1 mice weighing about 20 gm. All compounds are tested at least at three dose levels (30, 100 an 300 mg/kg) at 30 minutes and 4 hours after their administration.
as §7
Anticonvulsant Quantification in Mice, i.p.: The ED50 values are determined in the MES, scMet and rotorod ataxia test.
In data set [7] the target is Glycine (Homo sapiens, UniProt Q05586). Kind of data set: Radioligand binding, Glycine (excitatory), [3H]glycine.
Excerpt: as §4, §5

In data set [8] the test system is endogenous L-glutamate release. Kind of data set: Ca2+ dependent, K+ evoked release of endogenous L-glutamate in cerebrocortical slices. The format is cell-based, guinea pig. The note with it: Cavia porcellus; for activity at 50 µM / activity at 100 µM: means ± SEM, n = 4.
Setting [9] is: 10^-7 M, read-out: Percent Inhibition of specific binding (Average; N = 2).

Structures are written as SMILES.

In turn, `O=C(O)C1CN(CCCP(=O)(O)O)CCN1` (centres unmarked) [CPP, reference compound] came in with a Ki at NMDA (reference compound, [3H]CGS19755) of 359 nM.
`O=C1CN=C(c2ccccc2Cl)c2cc([N+](=O)[O-])ccc2N1` [Clonazepam, reference compound] registered an inhibitory constant (Ki) on Benzodiazepine (reference compound, Benzodiazepine) of 3.4 nM. This lies in the single-digit nanomolar range.
Turning to `CC(Nc1ccc(Cl)cc1)c1ccncc1` (centres unmarked) [Compound 2, 1-(4-Chloroanilino)-1-(4-pyridyl)-ethan], the “Percent Inhibition of specific binding (Average; N = 2)” value (“Percent Inhibition of specific binding” below) in the data set with Adenosine (1.0^-5 M) was -15.9%; in the data set on Adenosine (10^-7 M) it was -15.2%; in the data set with MK-801 (1.0^-5 M), 17.0%; with MK-801 (10^-7 M), 13.5%; with Sigma (1.0^-5 M), 49.1%; with Sigma (10^-7 M), 12.9%. Moreover, the “Percent Inhibition of specific binding” value in the data set with NMDA (1.0^-5 M) is given as -6.6%; in the data set on NMDA (10^-7 M) it was 3.5%; in the data set with PCF (1.0^-5 M), -1.8%; in the data set with PCF (10^-7 M), -3.8%; with GABAA (1.0^-5 M), 1.2%; with GABAA (10^-7 M), 6.5%. In addition, the “Percent Inhibition of specific binding” value was 4.3% in the data set with Quisqualate (1.0^-5 M); 4.2% with Quisqualate (10^-7 M); -1.4% at Glycine [2] (1.0^-5 M); -7.8% in the data set on Benzodiazepine (1.0^-5 M); -4.7% in the data set with Benzodiazepine (10^-7 M); -7.3% in the data set with Kainate (1.0^-5 M). Besides, the “Percent Inhibition of specific binding” value in the data set with Kainate (10^-7 M) is recorded as -3.7%; at GABAe (1.0^-5 M), -4.9%; on Glycine [7] (1.0^-5 M), -4.0%. For the same compound, the “activity at the [3H]MK-801-binding receptor sites (in words)” value in the data set with MK-801 is recorded as “no activity”. The “inhibition of the binding of [3H]DTG” value with Sigma (10 μM concentration) is recorded as 49%. In addition, in the data set with Sigma, the “inhibition of the binding of [3H]DTG (in words)” value (from here on “inhibition … (in words)”) is on record as “inhibit selectively”. The figures for the TD50 (in “in vivo”; in data set [3]) were > 470 mg/kg and 160 mg/kg, respectively. The 50% effective dose (ED50) in data set [1] is < 150 mg/kg; in data set [4], 22.9 mg/kg; in [5] it was > 250 mg/kg; in [6], 53.7 mg/kg. Further, the “activity at the [3H]TCP-binding receptor sites / PCP receptors (in words)” value with PCF is listed as “no activity”. In addition, the inhibition at 0.1 µM at Glycine [2] (setting [9]) is -1.8%; at GABAe (setting [9]), 3.6%; on Glycine [7] (setting [9]), 8.7%. The responders at 50 mg/kg in data set [4] was in the range of 75 to 100%. Moreover, the “P.I. MES (TD50/ED50)” value in [4] is on record as > 20.53; in data set [6], 2.98. In the data set with MES and scMet seizures, the minimal effective dose is < 100 mg/kg. The activity at 50 µM in data set [8] (50 μM (K+), 30 mM K+, P < 0.001 vs K+ alone) stood at 121 ± 8%; in data set [8] (50 μM (basal)), 101 ± 6%. The activity at 100 µM in data set [8] (100 μM (K+), 30 mM K+, P < 0.001 vs K+ alone) was 114 ± 4%; in data set [8] (100 μM (basal)), 99 ± 9%. Moreover, the inhibition at 50 µM in [8] (50 μM) was 74%. Also, the inhibition at 100 µM in data set [8] (100 μM) was 80%.
In the case of `CC(Nc1ccccc1)c1ccncc1` (centres unmarked) [Compound 8, 1-(Anilino)-1-(4-pyridyl)-ethan], in the data set with MK-801, the “activity at the [3H]MK-801-binding receptor sites (in words)” value is “no activity”. In addition, the “inhibition … (in words)” value in the data set on Sigma is given as “inhibit selectively”. Besides, the results for the TD50 (in “in vivo”; in data set [3]) were > 500 mg/kg and 161 mg/kg, respectively. Moreover, the ED50 in data set [1] is < 300 mg/kg; in data set [4] it was 48.4 mg/kg; in data set [5], > 250 mg/kg; in data set [6], 81.7 mg/kg. The “activity at the [3H]TCP-binding receptor sites / PCP receptors (in words)” value in the data set on PCF is “no activity”. For the same compound, the responders at 50 mg/kg in data set [4] is 50 to 75%. Moreover, the “P.I. MES (TD50/ED50)” value in data set [4] is > 10.33; in data set [6], 1.97. Moreover, in the data set on MES and scMet seizures, the minimal effective dose is < 100 mg/kg.
As for `Clc1ccc(NCc2ccncc2)cc1` [Compound 11, 1-(4-Chloroanilino)-1-(4-pyridyl)-methan], the “activity at the [3H]MK-801-binding receptor sites (in words)” value with MK-801 is listed as “no activity”. In the data set with Sigma, the “inhibition … (in words)” value was “inhibit selectively”. Besides, the TD50 in “in vivo” is > 500 mg/kg; in [3] (mice, i.p., read-out: TD50 (rotorod)), < 225 mg/kg. Also, the ED50 in data set [1] was 107 mg/kg; in data set [4] it was 39.1 mg/kg; in data set [5], > 250 mg/kg; in [6], 68.4 mg/kg. Also, the “activity at the [3H]TCP-binding receptor sites / PCP receptors (in words)” value in the data set on PCF is “no activity”. In addition, the responders at 50 mg/kg in [4] was in the range of 50 to 100%. The entries for the “P.I. MES (TD50/ED50)” value in data set [4] and in data set [6] were > 12.8 and < 3.3, respectively. Further, the minimal effective dose in the data set with MES and scMet seizures was < 100 mg/kg.
For the compound `C[C@@H](N)C(=O)O` [D-Alanine, reference compound], at Glycine [7] (reference compound, [3H]glycine), the Ki came to 4900 nM.
For `C=C(C)[C@H]1CN[C@H](C(=O)O)[C@H]1CC(=O)O` [Kainic Acid, reference compound], the affinity on Kainate (reference compound, [3H]KA) corresponds to a Ki of 24.9 nM.
With `CNC(=O)[C@H]1O[C@@H](n2cnc3c(N)ncnc32)[C@H](O)[C@@H]1O` [MECA, reference compound], the Ki at Adenosine (reference compound, Adenosine) amounted to 39.5 nM.
Consider `NCc1cc(=O)[nH]o1` [Muscimol, reference compound], for which affinity on GABAA (reference compound, GABAA) was put at a Ki of 2.8 nM.
Turning to `O=C1C[C@@H]2OCC=C3CN4CC[C@]56c7ccccc7N1[C@H]5[C@H]2[C@H]3C[C@H]46` [Strychnine Nitrate, reference compound], the Ki on Glycine [2] was determined as 33.5 nM.
